Experimental data: PubChem BioAssay (NCI)
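In this assay, cells in 96-well plates receive the compound at five concentrations for 48 hours. Endpoints are linearly interpolated between the surrounding concentrations. Here, GI50 denotes the concentration required for 50% inhibition of growth. TGI denotes the concentration required for complete inhibition of growth.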

Columns and labels:
Assay in all cases: NCI tumour cell line growth inhibition, 48 h
[1] = system: SK-MEL-28 melanoma
[2] = system: SNB-19 CNS
[3] = system: UACC-62 melanoma
[4] = system: BT-549 breast
[5] = system: OVCAR-3 ovarian
[6] = system: SNB-75 CNS
[7] = system: PC-3 prostate
[8] = system: SN12C renal
[9] = system: NCI-H522 lung
[10] = system: LOX IMVI melanoma
[11] = system: NCI-H460 lung
[12] = system: A549 NSCLC
[13] = system: UACC-257 melanoma
[14] = system: HCC-2998 colon
[15] = system: HOP-62 NSCLC
[16] = system: NCI-H23 lung
[17] = system: UO-31 renal
[18] = system: SF-295 CNS
[19] = system: RPMI-8226 leukemia
[20] = system: MALME-3M melanoma
[21] = system: ACHN renal
[22] = system: DU-145 prostate
[23] = system: MDA-MB-231 breast
[24] = system: HOP-92 NSCLC
[25] = system: MCF7 breast
[26] = system: COLO 205 colon
[27] = system: HT29 colon
[28] = system: CCRF-CEM leukemia
[29] = system: RXF 393 renal
[30] = system: TK-10 renal
[31] = system: A498 renal
[32] = system: OVCAR-5 ovarian
[33] = system: 786-0 renal
[34] = system: SK-OV-3 ovarian
[35] = system: T-47D breast
[36] = system: SF-539 CNS
[37] = system: IGROV1 ovarian
[38] = system: HCT-116 colon
[39] = system: EKVX NSCLC
[40] = system: CAKI-1 renal
[41] = system: U251 CNS
[42] = system: SF-268 CNS
[43] = system: OVCAR-8 ovarian
[44] = system: NCI/ADR-RES ovarian
[45] = system: KM12 colon
[46] = system: HL-60(TB) leukemia
[47] = system: SK-MEL-5 melanoma
[48] = system: MDA-MB-435
[49] = system: SK-MEL-2 melanoma
[50] = system: SR leukemia
[51] = system: K-562 leukemia
[52] = system: HCT-15 colon
[53] = system: NCI-H226 lung
[54] = system: M14 melanoma
[55] = system: SW-620 colon
[56] = system: OVCAR-4 ovarian

With `O=C1OC(=O)C2C1C1(c3ccccc3)C(c3ccccc3)=C(c3ccccc3)C2(c2ccccc2)S1=O` (configuration not stated) the GI50 [1] was greater than 100 µM, the TGI [1] was greater than 100 µM and the GI50 [2] was greater than 100 µM. It also gave a TGI [2] greater than 100 µM, a GI50 [3] of 49.4 µM and a TGI [3] greater than 100 µM. It also gave a GI50 [4] of 26.3 µM, a TGI [4] greater than 100 µM and a GI50 [5] greater than 100 µM. For the same compound, the TGI [5] was greater than 100 µM, the GI50 [6] was greater than 100 µM and the TGI [6] was greater than 100 µM. It also gave a GI50 [7] of 87.7 µM, a TGI [7] greater than 100 µM and a GI50 [8] greater than 100 µM. For the same compound, the TGI [8] was greater than 100 µM, the GI50 [9] was greater than 100 µM and the TGI [9] was greater than 100 µM. The GI50 [10] was greater than 100 µM, the TGI [10] was greater than 100 µM and the GI50 [11] was greater than 100 µM. The TGI [11] was greater than 100 µM, the GI50 [12] was greater than 100 µM and the TGI [12] was greater than 100 µM. The GI50 [13] was greater than 100 µM, the TGI [13] was greater than 100 µM and the GI50 [14] was greater than 100 µM. The TGI [14] was greater than 100 µM, the GI50 [15] was greater than 100 µM and the TGI [15] was greater than 100 µM. The GI50 [16] was greater than 100 µM, the TGI [16] was greater than 100 µM and the GI50 [17] was greater than 100 µM. For the same compound, the TGI [17] was greater than 100 µM, the GI50 [18] was greater than 100 µM and the TGI [18] was greater than 100 µM. For the same compound, the GI50 [19] was 53.1 µM, the TGI [19] was greater than 100 µM and the GI50 [20] was greater than 100 µM. For the same compound, the TGI [20] was greater than 100 µM, the GI50 [21] was greater than 100 µM and the TGI [21] was greater than 100 µM. The GI50 [22] was greater than 100 µM, the TGI [22] was greater than 100 µM and the GI50 [23] was greater than 100 µM. For the same compound, the TGI [23] was greater than 100 µM, the GI50 [24] was greater than 100 µM and the TGI [24] was greater than 100 µM. It also gave a GI50 [25] greater than 100 µM, a TGI [25] greater than 100 µM and a GI50 [26] greater than 100 µM. The TGI [26] was greater than 100 µM, the GI50 [27] was greater than 100 µM and the TGI [27] was greater than 100 µM. It also gave a GI50 [28] greater than 100 µM, a TGI [28] greater than 100 µM and a GI50 [29] greater than 100 µM. The TGI [29] was greater than 100 µM, the GI50 [30] was greater than 100 µM and the TGI [30] was greater than 100 µM. The GI50 [31] was greater than 100 µM, the TGI [31] was greater than 100 µM and the GI50 [32] was greater than 100 µM. It also gave a TGI [32] greater than 100 µM, a GI50 [33] greater than 100 µM and a TGI [33] greater than 100 µM. The GI50 [34] was greater than 100 µM, the TGI [34] was greater than 100 µM and the GI50 [35] was greater than 100 µM. It also gave a TGI [35] greater than 100 µM, a GI50 [36] greater than 100 µM and a TGI [36] greater than 100 µM. The GI50 [37] was greater than 100 µM, the TGI [37] was greater than 100 µM and the GI50 [38] was greater than 100 µM. For the same compound, the TGI [38] was greater than 100 µM, the GI50 [39] was greater than 100 µM and the TGI [39] was greater than 100 µM. The GI50 [40] was greater than 100 µM, the TGI [40] was greater than 100 µM and the GI50 [41] was greater than 100 µM. The TGI [41] was greater than 100 µM, the GI50 [42] was greater than 100 µM and the TGI [42] was greater than 100 µM. The GI50 [43] was greater than 100 µM, the TGI [43] was greater than 100 µM and the GI50 [44] was greater than 100 µM. It also gave a TGI [44] greater than 100 µM, a GI50 [45] greater than 100 µM and a TGI [45] greater than 100 µM. For the same compound, the GI50 [46] was greater than 100 µM, the TGI [46] was greater than 100 µM and the GI50 [47] was greater than 100 µM. The TGI [47] was greater than 100 µM, the GI50 [48] was greater than 100 µM and the TGI [48] was greater than 100 µM. The GI50 [49] was greater than 100 µM, the TGI [49] was greater than 100 µM and the GI50 [50] was 49.3 µM. It also gave a TGI [50] greater than 100 µM, a GI50 [51] of 78.2 µM and a TGI [51] greater than 100 µM. The GI50 [52] was greater than 100 µM, the TGI [52] was greater than 100 µM and the GI50 [53] was greater than 100 µM. The TGI [53] was greater than 100 µM, the GI50 [54] was greater than 100 µM and the TGI [54] was greater than 100 µM. The GI50 [55] was greater than 100 µM, the TGI [55] was greater than 100 µM and the GI50 [56] was greater than 100 µM. The TGI [56] was greater than 100 µM.
